Assay results: PMC7397156, “Cytotoxic Phenanthrene, Dihydrophenanthrene, and Dihydrostilbene Derivatives and Other Aromatic Compounds from Combretum laxum” (Molecules, 2020)

What was measured:
[1] = DPPH-radical-scavenging assay; details: 30 min, absorbance at 515 nm; mean ± SD, three independent experiments; read-out: Radical-scavenging activity against DPPH, IC50
Method: The radical-scavenging activities of compounds 1–6 were determined using DPPH (a stable free radical), employing the method of microdilution in 96-well microplates described by Zhang et al. and Yamaguchi et al., with some modifications. The assays were performed in triplicate, using caffeic acid as a standard compound and a DPPH solution in EtOH (200 µM) as a negative control. Solutions of samples in EtOH at 200 µM were serially diluted to 100, 50, 25, 12.5, and 6.25 µM. Each solution (100 µL) was mixed with 100 µL of DPPH solution. The samples were allowed to stand at room temperature in the dark for 30 min, after which their absorbances were recorded at 515 nm. The ability of test materials to scavenge DPPH radicals was calculated as follows: DPPH scavenging effect (%) = 100 (Acontrol − Asample)/Acontrol. Radical-scavenging activities were assessed on the basis of their IC50 values determined by linear regression.

Hep2 = assay: SRB cytotoxicity assay, Hep2 larynx carcinoma cells; type: cell-based; details: Homo sapiens, HEp-2, mean ± SD, three independent experiments
786-0 = assay: SRB cytotoxicity assay, 786-0 kidney carcinoma cells; details: Homo sapiens, 786-0, read-out: Cytotoxicity IC50, 786-0
Method: (§2) To this end, a sulforhodamine B (SRB; purity ≥ 97%; Sigma, St. Louis, MO, USA) assay was performed, as described elsewhere [53, 54]. […] IC50 values were calculated from the differences in absorbance readings at 540 nm in untreated (negative control) and treated cells on a SpectraMax 190 microplate reader (Molecular Devices, San Jose, CA, USA) [53] through nonlinear regression analysis, using Origin 6.0 software (OriginLab, Northampton, MA, USA), and growth percentages were calculated as described elsewhere [53]. The data presented are the mean ± standard deviation of at least three independent cell preparations made in triplicate.

MCF-7 = assay: SRB cytotoxicity assay, MCF-7 breast carcinoma cells; details: Homo sapiens, MCF7, read-out: Cytotoxicity IC50, MCF-7
Method: as §2

NCI/ADR-RES = assay: SRB cytotoxicity assay, NCI/ADR-RES ovary carcinoma cells, multidrug-resistant phenotype; details: Homo sapiens, read-out: Cytotoxicity IC50, NCI/ADR-RES
Method: as §2

UACC-62 = assay: SRB cytotoxicity assay, UACC-62 melanoma cells; details: for IC50: Homo sapiens, UACC-62, read-out: Cytotoxicity IC50, UACC-62
Method: as §2

[2] = SRB cytotoxicity assay, VERO nonneoplastic cells; type: cell-based, monkey; details: monkey, VERO (monkey kidney) nonneoplastic cells; at 2.5 µg mL^−1
Excerpt: (§1) In addition, 4 inhibited the proliferation of UACC-62 and VERO cells in a dose-dependent manner.

VERO cells = assay: SRB cytotoxicity assay, VERO nonneoplastic cells; type: cell-based, monkey
Excerpt: as §1

[3] = 0.25, 2.5 and 25 µg mL^−1, points above zero in growth curves (Figure 2)

IC50 [1] [µM] | SMILES | IC50 (Hep2) [µM] | IC50 (786-0) [µM] | IC50 (MCF-7) [µM] | IC50 (NCI/ADR-RES) [µM] | IC50 (UACC-62) [µM] | viability at 2.5 µg mL^−1 [2] [%] | Effect on VERO cell growth (VERO cells; [3]) | IC50 (VERO cells; Primates, Vero, SRB assay, read-out: IC50 on nontumor mammalian VERO cells) [µM] | Effect on UACC-62 cell growth (UACC-62; [3]) | Concentration from which a cytocidal (cell death) effect is seen on UACC-62 cells (UACC-62; points below zero in growth curves (Figure 2)) [µg/mL]
10.9 ± 0.1 | O=C(O)/C=C/c1ccc(O)c(O)c1 [Caffeic acid, caffeic acid, reference compound] |  |  |  |  |  |  |  |  |  | 
56.5 ± 0.3 | COc1cc(CCc2cc(OC)c(OC)c(Oc3cc(OC)c(OC)c(OC)c3)c2)ccc1O [Compound 1, 4′-Hydroxy-3,3′,4-trimethoxy-5-(3,4,5-trimethoxyphenoxy)-bibenzyl] | 218 ± 2.52 | 113 ± 2.89 | 72.7 ± 4.87 | 32.1 ± 4.31 |  |  |  |  |  | 
55.6 ± 0.4 | COc1cc2c(cc1O)CCc1cc(O)cc(OC)c1-2 [Compound 4, 2,7-dihydroxy-4,6-dimethoxy-9,10-dihydrophenanthrene] | 208 ± 17.1 | 57 ± 9.29 | 47 ± 5.55 | 58.8 ± 2.33 | 2.59 ± 0.11 | ~100 | cytostatic (growth inhibition) effect | 65.1 ± 4.51 | cytostatic (growth inhibition) effect | ≥ 2.5
32.9 ± 0.3 | COc1cc2c(cc1O)-c1c(cc(O)c(OC)c1OC)CC2 [Compound 5, 2,6-Dihydroxy-3,4,7-trimethoxy-9,10-dihydrophenanthrene] | 223 ± 2.81 | 199 ± 6.75 | 42 ± 9.33 | 212 ± 14.1 | 222 ± 3.04 |  |  |  |  | 
17.7 ± 0.3 | COc1cc2c(cc1O)-c1c(cc(O)cc1OC)CC2 [Compound 6, 2,6-dihydroxy-4,7-dimethoxy-9,10-dihydrophenanthrene] | 547.58 ± 0.11 | 257 ± 6.51 | 160 ± 8.21 | 303 ± 12.6 | 268 ± 13.8 |  |  |  |  | 

SMILES | IC50 [1] [µM] | IC50 (Hep2) [µM] | IC50 (786-0) [µM] | IC50 (MCF-7) [µM] | IC50 (NCI/ADR-RES) [µM] | IC50 (UACC-62) [µM] | viability at 2.5 µg mL^−1 [2] [%] | Effect on VERO cell growth (VERO cells; [3]) | IC50 (VERO cells; Primates, Vero, SRB assay, read-out: IC50 on nontumor mammalian VERO cells) [µM] | Effect on UACC-62 cell growth (UACC-62; [3]) | Concentration from which a cytocidal (cell death) effect is seen on UACC-62 cells (UACC-62; points below zero in growth curves (Figure 2)) [µg/mL]
COc1cc2c(ccc3cc(O)cc(OC)c32)cc1O [Compound 2, 2,7-Dihydroxy-4,6-dimethoxyphenanthrene] | 20.4 ± 0.3 | > 250 | 73.3 ± 7.7 | 118 ± 9.29 | 84 ± 5.4 | > 250 |  |  |  |  | 
COc1cc2ccc3cc(O)c(OC)c(OC)c3c2cc1O [Compound 3, 2,6-Dihydroxy-3,4,7-trimethoxyphenanthrene] | 45.6 ± 0.3 |  | 64.3 ± 9.62 | 226 ± 5.09 | 117 ± 2.66 | 247 ± 10.3 |  |  |  |  | 
